Test results as given in US12139481B2, “Compositions comprising macrocycle derivatives incorporating bridged macrocycles and methods of producing and using same” (Southwestern Oklahoma State University, priority 2015, dated 2024).
Where two headings read alike, the source gives them in different places.

Legend:
[1] = tested on: L. donovani promastigotes; assay: Antileishmanial Alamar Blue assay on promastigotes; assay type: cell-based, Leishmania donovani; conditions: for X more potent than Pentamidine: L. donovani, ratio of molar IC50 to Pentamidine
Experimental: Methods: The compounds were screened in vitro against the promastigote forms of the leishmania parasites employing the Alamar Blue assay as discussed below.
Antileishmanial activity of the compounds was tested in vitro against a culture of L. donovani promastigotes, grown in RPMI 1640 medium supplemented with 10% fetal calf serum (FCS, Gibco Chem. Co., Grand Island, NY) at 26° C. A 3-day-old culture was diluted to 5×10^5 promastigotes/mL. Drug dilutions (50-3.1 μg/mL) were prepared directly in cell suspension in 96-well plates. Plates were incubated at 26° C. for 48 hours, and growth of leishmania promastigotes was determined by Alamar Blue assay. Standard fluorescence was measured on a FLUOstar® Galaxy plate reader (BMG Lab Technologies, Ortenberg, Germany) at an excitation wavelength of 544 nm and emission wavelength of 590 nm. Pentamidine and amphotericin B were used as the standard antileishmanial agents. Percent growth was calculated and plotted versus test concentration for computing the IC50 values.

[2] = tested on: Cryptococcus neoformans ATCC 90113; assay: Antimicrobial microdilution assay against Cryptococcus neoformans (modified CLSI/NCCLS, optical density); assay type: cell-based; conditions: for X more potent than Amphotericin B: C. neoformans, ratio of molar IC50 to Amphotericin B; for C. neoformans IC50 / IC50: in vitro, C. neoformans ATCC 90113; for IC50: read-out: C. neoformans IC50 (mol/L)
Experimental: Summary: Various macrocyclic derivatives constructed in accordance with the presently disclosed and/or claimed inventive concept(s) were screened in vitro against Cryptococcus neoformans ATCC 90113 using a microdilution assay. The minimum fungicidal concentration (MFC), the lowest test concentration that kills the organism, was determined in broth media.
Antimicrobial assay: Cryptococcus neoformans ATCC 90113 were obtained from the American Type Culture Collection (Manassas, VA.). The susceptibility testing was performed using a modified version of the CLSI (formerly NCCLS) methods (see below), and optical density was used to monitor growth. Samples were serially diluted in 20% DMSO/saline and transferred in duplicate to 96-well flat bottom microplates. Microbial inocula were prepared by correcting the OD630 of cell/spore suspensions in incubation broth RPMI at pH 6.0 to afford final desired target inocula. Amphotericin B (“AMB;” ICN Biomedicals, OH) was used as drug control. The organism concentration was read at 630 nm using the Biotek Powerwave XS plate reader (Bio-Tek instruments, VT) prior to and after incubation. Minimum fungicidal concentrations were determined by removing 5 μL from each clear well, transferring to agar, and incubating until growth was seen. The MFC/MBC is defined as the lowest test concentration that kids the organism (allows no growth on agar).
References for NCCLS methods referenced above: 1 NCCLS. Reference method for broth dilution antifungal susceptibility testing of yeasts, Vol. 22. Approved standard, 2nd ed. Wayne: National Committee for Clinical Laboratory Standards; 2002: 1-51. 2 NCCLS. Reference method for broth dilution antifungal susceptibility testing of conidium forming filamentous fungi, Vol. 18. Proposed standard M38-P. Wayne: National Committee for Clinical Laboratory Standards; 1998: 1-39. 3 NCCLS. Methods for dilution antimicrobial susceptibility tests for bacteria that grow aerobically, Vol. 20. NCCLS Document M7-A5. Wayne: National Committee for Clinical Laboratory Standards; 2000: 1-58.
The term “IC50” as used herein will be understood to refer to a test concentration in mol/L that affords 50% inhibition of the microbe relative to negative and positive controls. […] The abbreviation “MFC” as used herein will be understood to refer to a minimum fungicidal concentration, or the lowest test concentration in mol/L that kills the organism. All IC50s are calculated using the XLfit® fit curve fitting software (ID Business Solutions Ltd, Guildford, Surrey, UK).
General Experimental Procedures. All organisms were obtained from the American Type Culture Collection (Manassas, VA) and include the fungi Candida albicans ATCC 90028, C. glabrata ATCC 90030, C. krusei ATCC 6258, and Cryptococcus neoformans ATCC 90113, and the bacteria Staphylococcus aureus ATCC 29213 and methicillin-resistant S. aureus ATCC 33591 (MRS). All organisms were tested using modified versions of the CLSI (formerly NCCLS) methods. For all organisms, optical density was used to monitor growth (NCCLS, Reference Method for Broth Dilution Antifungal Susceptibility Testing of Yeasts; Approved Standard M27-A2. National Committee on Clinical Laboratory Standards, 2002 22 (15); and NCCLS, Methods for Dilution Antimicrobial Susceptibility Tests for Bacteria that Grow Aerobically; Approved Standard, Seventh Edition M7-A7. National Committee on Clinical Laboratory Standards, 2006. 26(2)).
Samples (dissolved in DMSO) were serially-diluted in 20% DMSO/saline and transferred (10 μL) in duplicate to 96 well flat bottom microplates.

[3] = promastigotes, 48 hours, Alamar Blue
[4] = promastigotes, 48 hours, Alamar Blue, read-out: L. donavani IC50

Compound	X more potent than Pentamidine [1]	L. donovani IC50 [1, 3] [µg/mL]	IC50 [1, 4] [µM]	X more potent than Amphotericin B [2]	C. neoformans IC50 [2] [µg/mL]	IC50 [2] [µM]	IC50 ([1]; promastigotes, 48 hours, Alamar Blue, HCl salt, read-out: L. donavani IC50) [µM]	IC50 ([2]; HCl salt) [µM]	IC50 ([1]; Leishmania donovani, 48 h, read-out: L. donavani IC50 (mol/L)) [µM]	IC50 ([1]; Leishmania donovani, promastigotes, 48 hours, Alamar Blue, read-out: L. donovani IC50) [µg/mL]	IC50 ([1]; Leishmania donovani, read-out: IC50 against L. donovani) [µM]
O.[Cl-].[Cl-].[Mn+2].c1ccc(CN2CCCNCCN(Cc3ccccc3)CCCNCC2)cc1 [TJH397A, Mn(Bn2Cyclam)Cl2•H2O]	1.21	2.31	4.41	0.01	16.870	32.2					
[Co2(m-CB-Homocyclens)(OAc)2.6][PF6]1.4 [CDG036]	0.25	22.23	21.6	0.08	3.040	2.95					
p-SB-cyclens HCl salt [OB24B]	0.14	32.40	37.5	0.31	0.670	0.776					
CC(=O)[O-].CC(=O)[O-].CC(=O)[O-].CC(=O)[O-].O=[N+]([O-])c1ccc(CC2CNCCN(Cc3ccc(CN4CCCN5CCN(CCCNCC4)CC5)cc3)CCCN3CCN(CC3)C2)cc1.[Zn+2].[Zn+2] (stereo not shown) [SJA235, [Zn2(bis-SB-C-Ar-NO2)(OAc)4]]	0.16	34.77		0.13	1.930						
CC(=O)[O-].Clc1cc(CN2CCNCCN3CCN(CC3)CC2)cc(Cl)n1.F[P-](F)(F)(F)(F)F.[Ni+2] [OB106, [Ni(dcp1-SB-cyclen)(OAc)]PF6]	0.14	23.19	37.3	0.38	0.390	0.628					
[Cu2(m-CB-Homocyclens)(OAc)2.5][PF6]1.5 [CDG035]	0.21	26.37	25.2	0.08	3.260	3.11					
[Zn(dcp1-SB-cyclen)(OAc)]PF6 [OB110A]	0.11	38.32	50.6	0.30	0.610	0.805					
Cl.Cl.Cl.Cl.Cl.Cl.Cl.Cl.c1cc(CN2CCNCCCN3CCN(CC3)CC2)ccc1CN1CCNCCCN2CCN(CC2)CC1 [OB45B, p-SB-homocyclens HCl salt]	0.13	34.55		0.67	0.290		42.2	0.354			
c1cc(CN2CCCN3CCNCCCN(CC3)CC2)ccc1CN1CCCN2CCNCCCN(CC2)CC1 [JGL44, p-CB-H2Bcyclams]	0.11	28.08	50.6	0.73	0.180	0.324					
Clc1cc(CN2CCCNCCN(Cc3cc(Cl)nc(Cl)c3)CCCNCC2)cc(Cl)n1 [DJD29, (DCP)2Cyclam]	0.28	9.76	18.8								
CC(=O)[O-].CC(=O)[O-].F[P-](F)(F)(F)(F)F.F[P-](F)(F)(F)(F)F.O.[Zn+2].[Zn+2].c1cc(CN2CCCN3CCNCCCN(CC3)CC2)ccc1CN1CCCN2CCNCCCN(CC2)CC1 [TJH417B, [Zn2(H2-p-CB-cyclams)(OAc)2][PF6]2•H2O]	0.17	34.93		0.08	3.120						
N=C(N)c1ccc(OCCCCCOc2ccc(C(=N)N)cc2)cc1 [PENT, Pentamidine, reference compound]	1.00								5.32	1.81	5.32
CC(=O)[O-].F[P-](F)(F)(F)(F)F.[Zn+2].c1ccc(CN2CCCNCCN(Cc3ccccc3)CCCNCC2)cc1 [SLK07B, [Zn(Bn2Cyclam)(OAc)]PF6]	1.16	2.97		0.01	19.840						
Fe(Bn2Cyclam)Cl2•0.5 H2O [TJH398A]	1.20	2.28	4.42								
[Cl][Mn-2]([Cl])([Cl])[Cl].[Cl][Mn-2]([Cl])([Cl])[Cl].[Mn+2].[Mn+2].c1cc(CN2CCCN3CCNCCCN(CC3)CC2)ccc1CN1CCCN2CCNCCCN(CC2)CC1 [TJH412, [Mn2(H2-p-CB-cyclams)][MnCl4]2]	0.17	33.37	31.5	0.13	1.990	1.88					
p-CB-cyclam-cyclen [CMB008D]	0.08	38.75	69.8	0.17	≤ 0.800	1.44					
[Ni3(tris-CB-Cyclams)(OAc)3][PF6]3•2.5H2O [BNS23]	0.28	31.63	19	0.03	12.110	7.26					
c1ccc(CN2CCCNCCN(Cc3ccccc3)CCCNCC2)cc1 [BME04, Bn2Cyclam]	0.77	2.63	6.91	0.01	12.160	31.9					
